Measurements as given in patent US20240368150A1 (Hoffmann-La Roche Inc., priority 2021, published 2024).
pEC50: −log10 of the molar value. Where two headings read alike, the source gives them in different places.

Assays:
primary human T-cells [1] = assay: Proliferation assay after 5 days (CellTiter-Glo, CD3 stimulation; PBS counter screen); assay type: cell-based; conditions: Homo sapiens, T-cell, 120 h, CD3 stimulation; for Emax: 5 days, normalized to reference compound A1 as stimulator control = 100%, DMSO neutral control, read-out: Emax proliferation (% activation); for pEC50: primary human T-cells, CellTiter-Glo after 5 days, EC50 of fitted sigmoidal curve, read-out: Tcell Proliferation CD3 EC50
Procedure, shortened: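 Compounds were added to medium-only plates, and proliferation was read 5 days later as luminescence from CellTiter-Glo 2.0, whose ATP signal is proportional to cell number. Plates and reagent were equilibrated to room temperature for 45 min before an equal volume of reagent was added, with 15 min rocking.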

primary human T-cells [2] = tested on: primary human T-cells

Row | SMILES | Emax (primary human T-cells [1]) [%] | pEC50 (primary human T-cells [1]) | pEC50 (primary human T-cells [2])
1 | CC(C)Nc1nnc(-c2ccc3c(c2)N(Cc2ccc(Cl)cc2)C(=O)[C@@H](N)CS3(=O)=O)o1 [Example 399, (3R)-3-amino-5-[(4-chlorophenyl)methyl]-7-[5-(isopropylamino)-1,3,4-oxadiazol-2-yl]-1,1-dioxo-2,3-dihydro-1λ^6,5-benzothiazepin-4-one] | 73 | 5.46 | 5.45
2 | N[C@H]1CS(=O)(=O)c2ccc(-c3nnc(N4CC(CO)(CCl)C4)o3)cc2N(Cc2ccc(Cl)cc2)C1=O [Example 400, (3R)-3-amino-7-[5-[3-(chloromethyl)-3-(hydroxymethyl)azetidin-1-yl]-1,3,4-oxadiazol-2-yl]-5-[(4-chlorophenyl)methyl]-1,1-dioxo-2,3-dihydro-1λ^6,5-benzothiazepin-4-one] | 72 | 5.28 | 5.39
3 | N[C@H]1CS(=O)(=O)c2ccc(-c3nnc(N4CC5(C4)CC(F)(F)C5)o3)cc2N(Cc2ccc(Cl)cc2)C1=O [Example 402, (3R)-3-amino-5-[(4-chlorophenyl)methyl]-7-[5-(6,6-difluoro-2-azaspiro[3.3]heptan-2-yl)-1,3,4-oxadiazol-2-yl]-1,1-dioxo-2,3-dihydro-1λ^6,5-benzothiazepin-4-one] | 93 | 6.03 | 5.79
4 | COCC1(Nc2nnc(-c3ccc4c(c3)N(Cc3ccc(Cl)cc3)C(=O)[C@@H](N)CS4(=O)=O)o2)CC(F)(F)C1 [Example 403, (3R)-3-amino-5-[(4-chlorophenyl)methyl]-7-[5-[[3,3-difluoro-1-(methoxymethyl)cyclobutyl]amino]-1,3,4-oxadiazol-2-yl]-1,1-dioxo-2,3-dihydro-1λ^6,5-benzothiazepin-4-one] | 83 | 5.94 | 5.43
5 | N[C@H]1CS(=O)(=O)c2ccc(-c3nnc(N4CC5(CCCO5)C4)o3)cc2N(Cc2ccc(Cl)cc2)C1=O [Example 404, (3R)-3-amino-5-[(4-chlorophenyl)methyl]-7-[5-(5-oxa-2-azaspiro[3.4]octan-2-yl)-1,3,4-oxadiazol-2-yl]-1,1-dioxo-2,3-dihydro-1λ^6,5-benzothiazepin-4-one] | 101 | 5.63 | 5.09
6 | N[C@H]1CS(=O)(=O)c2ccc(-c3nnc(N4CC5(CCCOC5)C4)o3)cc2N(Cc2ccc(Cl)cc2)C1=O [Example 405, (3R)-3-amino-5-[(4-chlorophenyl)methyl]-7-[5-(6-oxa-2-azaspiro[3.5]nonan-2-yl)-1,3,4-oxadiazol-2-yl]-1,1-dioxo-2,3-dihydro-1λ^6,5-benzothiazepin-4-one] | 86 | 5.97 | 5.88
7 | N[C@H]1CS(=O)(=O)c2ccc(-c3nnc(N4CCOC5CC54)o3)cc2N(Cc2ccc(Cl)cc2)C1=O (stereo partly drawn) [Example 408, (3R)-3-amino-5-[(4-chlorophenyl)methyl]-7-[5-(2-oxa-5-azabicyclo[4.1.0]heptan-5-yl)-1,3,4-oxadiazol-2-yl]-1,1-dioxo-2,3-dihydro-1λ^6,5-benzothiazepin-4-one] | 88 | 5.31 | < 5.00
8 | N[C@H]1CS(=O)(=O)c2ccc(-c3nnc(N4CCOCC4)o3)cc2N(Cc2ccc(Cl)cc2)C1=O [Example 410, (3R)-3-amino-5-[(4-chlorophenyl)methyl]-7-(5-morpholino-1,3,4-oxadiazol-2-yl)-1,1-dioxo-2,3-dihydro-1λ^6,5-benzothiazepin-4-one] | 109 | 5.93 | 5.15
9 | N[C@H]1CS(=O)(=O)c2ccc(-c3nnc(N4CCOC5(CC5)C4)o3)cc2N(Cc2ccc(Cl)cc2)C1=O [Example 411, (3R)-3-amino-5-[(4-chlorophenyl)methyl]-7-[5-(4-oxa-7-azaspiro[2.5]octan-7-yl)-1,3,4-oxadiazol-2-yl]-1,1-dioxo-2,3-dihydro-1λ^6,5-benzothiazepin-4-one] | 78 | 6.34 | < 5.00
10 | N[C@H]1CS(=O)(=O)c2ccc(-c3nnc(C4(N)CCCC4)o3)cc2N(Cc2ccc(OC(F)(F)F)cc2)C1=O [Example 414, (3R)-3-amino-7-[5-(1-aminocyclopentyl)-1,3,4-oxadiazol-2-yl]-1,1-dioxo-5-[[4-(trifluoromethoxy)phenyl]methyl]-2,3-dihydro-1λ^6,5-benzothiazepin-4-one] | 83 | 5.59 | 5.36
11 | N[C@H]1CS(=O)(=O)c2ccc(-c3nnc(C(F)(F)C(F)(F)F)o3)cc2N(Cc2ccc(OC(F)(F)F)cc2)C1=O [Example 415, (3R)-3-amino-1,1-dioxo-7-[5-(1,1,2,2,2-pentafluoroethyl)-1,3,4-oxadiazol-2-yl]-5-[[4-(trifluoromethoxy)phenyl]methyl]-2,3-dihydro-1λ^6,5-benzothiazepin-4-one] | 64 | 5.21 | 6.35
12 | N[C@H]1CS(=O)(=O)c2ccc(-c3nnc(C4(N)CCOCC4)o3)cc2N(Cc2ccc(OC(F)(F)F)cc2)C1=O [Example 418, (3R)-3-amino-7-[5-(4-aminotetrahydropyran-4-yl)-1,3,4-oxadiazol-2-yl]-1,1-dioxo-5-[[4-(trifluoromethoxy)phenyl]methyl]-2,3-dihydro-1λ^6,5-benzothiazepin-4-one] | 52 | 5.02 | 5.24
13 | CNC(C)(C)c1nnc(-c2ccc3c(c2)N(Cc2ccc(OC(F)(F)F)cc2)C(=O)[C@@H](N)CS3(=O)=O)o1 [Example 419, (3R)-3-amino-7-[5-[1-methyl-1-(methylamino)ethyl]-1,3,4-oxadiazol-2-yl]-1,1-dioxo-5-[[4-(trifluoromethoxy)phenyl]methyl]-2,3-dihydro-1λ^6,5-benzothiazepin-4-one] | 62 | 5.14 | 5.82
14 | CC(C)(C#N)c1nnc(-c2ccc3c(c2)N(Cc2ccc(OC(F)(F)F)cc2)C(=O)[C@@H](N)CS3(=O)=O)o1 [Example 420, 2-[5-[(3R)-3-amino-1,1,4-trioxo-5-[[4-(trifluoromethoxy)phenyl]methyl]-2,3-dihydro-1λ^6,5-benzothiazepin-7-yl]-1,3,4-oxadiazol-2-yl]-2-methyl-propanenitrile] | 167 | 5.80 | 5.87
15 | CN1CC(c2nnc(-c3ccc4c(c3)N(Cc3ccc(OC(F)(F)F)cc3)C(=O)[C@@H](N)CS4(=O)=O)o2)CC(F)(F)C1 (stereo partly drawn) [Example 421, (3R)-3-amino-7-[5-(5,5-difluoro-1-methyl-3-piperidyl)-1,3,4-oxadiazol-2-yl]-1,1-dioxo-5-[[4-(trifluoromethoxy)phenyl]methyl]-2,3-dihydro-1λ^6,5-benzothiazepin-4-one] | 123 | 5.61 | 5.49
16 | COC(=O)N1CC2CC(c3nnc(-c4ccc5c(c4)N(Cc4ccc(OC(F)(F)F)cc4)C(=O)[C@@H](N)CS5(=O)=O)o3)(C2)C1 [Example 422, Methyl 1-[5-[(3R)-3-amino-1,1,4-trioxo-5-[[4-(trifluoromethoxy)phenyl]methyl]-2,3-dihydro-1λ^6,5-benzothiazepin-7-yl]-1,3,4-oxadiazol-2-yl]-3-azabicyclo[3.1.1]heptane-3-carboxylate] | 102 | 5.74 | 6.08
17 | COC(=O)N1CCC(c2nnc(-c3ccc4c(c3)N(Cc3ccc(OC(F)(F)F)cc3)C(=O)[C@@H](N)CS4(=O)=O)o2)C1 (stereo partly drawn) [Example 423, methyl 3-[5-[(3R)-3-amino-1,1,4-trioxo-5-[[4-(trifluoromethoxy)phenyl]methyl]-2,3-dihydro-1λ^6,5-benzothiazepin-7-yl]-1,3,4-oxadiazol-2-yl]pyrrolidine-1-carboxylate] | 78 | 5.76 | 5.82
18 | COC(F)(c1nnc(-c2ccc3c(c2)N(Cc2ccc(OC(F)(F)F)cc2)C(=O)[C@@H](N)CS3(=O)=O)o1)C(F)(F)F (stereo partly drawn) [Example 424, (3R)-3-amino-1,1-dioxo-7-[5-(1,2,2,2-tetrafluoro-1-methoxy-ethyl)-1,3,4-oxadiazol-2-yl]-5-[[14-(trifluoromethoxy)phenyl]methyl]-2,3-dihydro-1λ^6,5-benzothiazepin-4-one] | 88 | 7.14 | 7.16
19 | CC(C)(C)c1nnc(-c2ccc3c(c2)N(Cc2ccc(OCC(F)(F)F)cc2)C(=O)[C@@H](N)CS3(=O)=O)o1 [Example 429, (3R)-3-amino-7-(5-tert-butyl-1,3,4-oxadiazol-2-yl)-1,1-dioxo-5-[[4-(2,2,2-trifluoroethoxy)phenyl]methyl]-2,3-dihydro-1λ^6,5-benzothiazepin-4-one] | 103 | 5.31 | 6.02
20 | CC(C)(C)c1nnc(-c2ccc3c(c2)N(Cc2ccc(OCC4CC4)cc2)C(=O)[C@@H](N)CS3(=O)=O)o1 [Example 431, (3R)-3-amino-7-(5-tert-butyl-1,3,4-oxadiazol-2-yl)-5-[[4-(cyclopropylmethoxy)phenyl]methyl]-1,1-dioxo-2,3-dihydro-1λ^6,5-benzothiazepin-4-one] | 110 | 5.71 | 5.39
21 | CC(C)(C)c1nnc(-c2ccc3c(c2)N(Cc2ccc(OCC(F)F)cc2)C(=O)[C@@H](N)CS3(=O)=O)o1 [Example 432, (3R)-3-amino-7-(5-tert-butyl-1,3,4-oxadiazol-2-yl)-5-[[4-(2,2-difluoroethoxy)phenyl]methyl]-1,1-dioxo-2,3-dihydro-1λ^6,5-benzothiazepin-4-one] | 103 | 5.84 | 5.57
22 | CC(C)(C)c1nnc(-c2ccc3c(c2)N(Cc2ccc(OCC4CCOCC4)cc2)C(=O)[C@@H](N)CS3(=O)=O)o1 [Example 433, (3R)-3-amino-7-(5-tert-butyl-1,3,4-oxadiazol-2-yl)-1,1-dioxo-5-[[4-(tetrahydropyran-4-ylmethoxy)phenyl]methyl]-2,3-dihydro-1λ^6,5-benzothiazepin-4-one] | 105 | 5.32 | 5.25
